What was measured:
SARS-CoV [1] = experiment: Inhibition of human SARS-CoV Toronto-2 at 300 uM in a cell based assay; assay type: functional; details: Severe acute respiratory syndrome-related coronavirus
SARS-CoV [2] = experiment: Inhibition of human SARS-CoV Toronto-2 in a cell based assay; assay type: functional, organism-based; details: Severe acute respiratory syndrome-related coronavirus

SMILES	inhibition at 300 µM (SARS-CoV [1])	EC50 (SARS-CoV [2])
O=C(O)c1ccc(NC(=O)c2cccc3c2C2=C(CCCC2)C3=O)cc1	25%	–
O=C(O)c1ccc(/N=C/c2c(O)ccc3oc4c(c23)CCCC4)cc1	–	23 µM

Source: ChEMBL document CHEMBL1149467, “From genome to drug lead: identification of a small-molecule inhibitor of the SARS virus” (Bioorg Med Chem Lett, 2006)
